The results in this text go back to patent US12297201B2, “Substituted pyrrolo[2,3-d]pyrimidines as antimicrobials” (BIOVERSYS AG, priority 2018, dated 2025).

As a reminder, the MIC is the smallest concentration in the dilution series that meets the test's criterion for growth inhibition.

Assay [1] has as its system Staphylococcus aureus (S. aureus) 11540 strain. As to the kind of experiment: standard microdilution assay to determine MIC against S. aureus. Type of assay: cell-based. As for the experimental part:
(§1) The in vitro activity of the compounds of the present disclosure can be determined. Antimicrobial testing is typically performed to determine the minimum inhibitory concentration (MIC). Minimum inhibitory concentrations (MICs) are determined by the microdilution method in a final volume of 100 μl according to protocols outlined by The Clinical and Laboratory Standards Institute (CLSI). Performance standards for reference strains are assessed within the same experimental design to maintain quality control. See, for example, Clinical Laboratory Standards Institute: Methods for dilution antimicrobial susceptibility tests for bacteria that grow aerobically M7-A8. Approved Standard-Eighth Edition. Wayne, Pa.: CLSI; December 2008; and Clinical Laboratory Standards Institute: Performance Standards for Antimicrobial Susceptibility Testing M100-S20; Approved Standard-Twentieth Edition. Wayne, Pa.: CLSI; June 2010. The compounds of the present disclosure were tested for antimicrobial activity. The Compounds 1-105 were run against Escherichia coli (E. coli) strain ATCC25922 and against Staphylococcus aureus (S. aureus) 11540 strain using a standard microdilution assay to determine minimum inhibitory concentrations (MICs). […] It will be recognized by one skilled in the art that the compounds can be assessed against other bacterial organisms and that the presentation of data for activity against Escherichia coli and Staphylococcus aureus are illustrative and in no way is intended to limit the scope of the present disclosure. The compounds of the present disclosure can be assayed against a range of other microorganisms depending upon the performance activity desired to be gathered. Furthermore, the “+” and “−” representation and the selection of a cutoff value of 16 micrograms/mL is also illustrative and in no way is intended to limit the scope of the present disclosure.
A general note: Broth dilution looks for growth in wells or tubes with falling amounts of substance.

For assay [2], the system named is Escherichia coli (E. coli) strain ATCC25922. Kind of assay: standard microdilution assay to determine MIC against E. coli. The assay is classed as cell-based. As to the method:
as §1

Turning to `C[C@H](N)CCCc1cc(Cl)c(F)c(-c2cc3cn(-c4ccc([C@@H]5CCC[C@@H](CCOC(=N)N)N5C)cc4)c(=O)nc3[nH]2)c1` [Compound 2], the minimal inhibitory concentration (MIC) in assay [1] and in assay [2] was not above 16 µg/mL each time.
On to `C[C@H](N)CCCc1cc(Cl)c(F)c(-c2cc3cn(-c4ccc([C@@H]5CCC[C@@H](CCOC(=N)N)N5C5CC5)cc4)c(=O)nc3[nH]2)c1` [Compound 16], for which the MIC in assay [1] and in assay [2] was not above 16 µg/mL in each case.
On to `C[C@H](N)CCCc1cc(Cl)c(F)c(-c2cc3cn(-c4ccc([C@@H]5CCC[C@@H](CCOC(=N)N)N5CCCO)cc4)c(=O)nc3[nH]2)c1` [Compound 12], for which the minimum inhibitory concentration (MIC) in assay [1] and in assay [2] was not above 16 µg/mL throughout.
Turning to `C[C@H](N)CCCc1cc(Cl)c(F)c(-c2cc3cn(-c4ccc([C@@H]5CCC[C@@H](CCOC(=N)N)N5CCCF)cc4)c(=O)nc3[nH]2)c1` [Compound 3], the MIC in assay [1] and in assay [2] was not above 16 µg/mL each time.
Turning to `C[C@H](N)CCCc1cc(Cl)c(F)c(-c2cc3cn(-c4ccc([C@@H]5CCC[C@@H](CCOC(=N)N)N5CCC5CCOCC5)cc4)c(=O)nc3[nH]2)c1` [Compound 4], the MIC in assay [1] and in assay [2] was not above 16 µg/mL in each case.
As to `C=CCN1[C@H](CCOC(=N)N)CCC[C@H]1c1ccc(-n2cc3cc(-c4cc(CCC[C@H](C)N)cc(Cl)c4F)[nH]c3nc2=O)cc1` [Compound 13], the MIC in assay [1] and in assay [2] was not above 16 µg/mL each time.
On to `CCCN1[C@H](CCOC(=N)N)CCC[C@H]1c1ccc(-n2cc3cc(-c4cc(CCC[C@H](C)N)cc(Cl)c4F)[nH]c3nc2=O)cc1` [Compound 7], for which the MIC in assay [1] and in assay [2] was not above 16 µg/mL each time.
Turning to `C[C@H](N)CCCc1cc(Cl)c(F)c(-c2cc3cn(-c4ccc([C@@H]5CCC[C@@H](CCOC(=N)N)N5CCCSC(=N)N)cc4)c(=O)nc3[nH]2)c1` [Compound 15], the minimum inhibitory concentration (MIC) in assay [1] and in assay [2] was not above 16 µg/mL throughout.
As to `C=C[C@H](N)CCCc1cc(Cl)c(F)c(-c2cc3cn(-c4ccc([C@@H]5CCC[C@@H](CCOC(=N)N)N5C)cc4)c(=O)nc3[nH]2)c1` [Compound 18], the MIC in assay [1] and in assay [2] was not above 16 µg/mL each time.
Turning to `CN1[C@H](CCOC(=N)N)CCC[C@H]1c1ccc(-n2cc3cc(-c4cc(CCC[C@@H](N)C5CC5)cc(Cl)c4F)[nH]c3nc2=O)cc1` [Compound 17], the MIC in assay [1] and in assay [2] was not above 16 µg/mL each time.
On to `CSCCN1[C@H](CCOC(=N)N)CCC[C@H]1c1ccc(-n2cc3cc(-c4cc(CCC[C@H](C)N)cc(Cl)c4F)[nH]c3nc2=O)cc1` [Compound 8], for which the MIC in assay [1] and in assay [2] was not above 16 µg/mL throughout.
Consider `CN1[C@H](CCOC(=N)N)CCC[C@H]1c1ccc(-n2cc3cc(-c4cc(CCC[C@@H](N)COC(=N)N)cc(Cl)c4F)[nH]c3nc2=O)cc1` [Compound 19], for which the minimal inhibitory concentration (MIC) in assay [1] and in assay [2] was not above 16 µg/mL throughout.
In the case of `C[C@H](N)CCCc1cc(Cl)c(F)c(-c2cc3cn(-c4ccc([C@@H]5CCC[C@@H](CCOC(=N)N)N5CCF)cc4)c(=O)nc3[nH]2)c1` [Compound 5], the MIC in assay [1] and in assay [2] was not above 16 µg/mL throughout.
`COC(=N)NCC[C@@H]1CCC[C@@H](c2ccc(-n3cc4cc(-c5cc(CCC[C@H](C)N)cc(Cl)c5F)[nH]c4nc3=O)cc2)N1` [Compound 20]: the MIC in assay [1] and in assay [2] was not above 16 µg/mL in each case.
Take `COC(=O)CN1[C@H](CCOC(=N)N)CCC[C@H]1c1ccc(-n2cc3cc(-c4cc(CCC[C@H](C)N)cc(Cl)c4F)[nH]c3nc2=O)cc1` [Compound 11]: the MIC in assay [1] and in assay [2] was not above 16 µg/mL each time.
For the molecule `COCCN1[C@H](CCOC(=N)N)CCC[C@H]1c1ccc(-n2cc3cc(-c4cc(CCC[C@H](C)N)cc(Cl)c4F)[nH]c3nc2=O)cc1` [Compound 6], the minimum inhibitory concentration (MIC) in assay [1] and in assay [2] was not above 16 µg/mL in each case.
Take `CCN1[C@H](CCOC(=N)N)CCC[C@H]1c1ccc(-n2cc3cc(-c4cc(CCC[C@H](C)N)cc(Cl)c4F)[nH]c3nc2=O)cc1` [Compound 14]: the MIC in assay [1] and in assay [2] was not above 16 µg/mL throughout.
Turning to `CC(C)CN1[C@H](CCOC(=N)N)CCC[C@H]1c1ccc(-n2cc3cc(-c4cc(CCC[C@H](C)N)cc(Cl)c4F)[nH]c3nc2=O)cc1` [Compound 10], the MIC in assay [1] and in assay [2] was not above 16 µg/mL in each case.
As to `C[C@H](N)CCCc1cc(Cl)c(F)c(-c2cc3cn(-c4ccc([C@@H]5CCC[C@@H](CCOC(=N)N)N5CCC5CC5)cc4)c(=O)nc3[nH]2)c1` [Compound 9], the MIC in assay [1] and in assay [2] was not above 16 µg/mL in each case.
